System: Plasmopara viticola
Test: Activity against Peronospora in grape vines caused by Plasmopara viticola (protective spray, potted vines)
Format: in vivo
Conditions: individual active ingredient, vine cultivar Müller-Thurgau
Protocol: The active ingredients, separately or together, are formulated as a 10% emulsion in a mixture of 63% by weight of cyclohexanone and 27% by weight of emulsifier, and diluted with water to the desired concentration.
Evaluation is carried out by determining the infected leaf areas in percent. These percentages are converted into efficacies. The efficacy (W) is calculated as follows using Abbot's formula: […]
α corresponds to the fungal infection of the treated plants in % and β corresponds to the fungal infection of the untreated (control) plants in % An efficacy of 0 means that the infection level of the treated plants corresponds to that of the untreated control plants; an efficacy of 100 means that the treated plants were not infected.
The expected efficacies of the mixtures of the active ingredients were determined using Colby's formula [R. S. Colby, Weeds 15, 20-22 (1967)] and compared with the observed efficacies.
E=x+y−x·y/100 Colby's formula
E expected efficacy, expressed in % of the untreated control, when using the mixture of the active ingredients A and B at the concentrations a and b […]
X efficacy, expressed in % of the untreated control, when using active ingredient A at a concentration of a […]
Y efficacy, expressed in % of the untreated control, when using active ingredient B at a concentration of b […]
Activity Against Peronospora in Grape Vines Caused by Plasmmopara viticola […]
Leaves of potted vines of the cultivar “Müller-Thurgau” were sprayed to runoff point with an aqueous preparation of active ingredient which had been prepared using a stock solution comprising 10% of active ingredient, 85% of cyclohexanone and 5% of emulsifier. The next day, the undersides of the leaves were inoculated with an aqueous zoospore suspension of Plasmopara viticola. The vines were then placed firstly for 48 hours in a water-vapor-saturated chamber at 24° C. and then for 5 days in a greenhouse at 20-30° C. After this period of time, the plants were again placed in a moist chamber for 16 hours to accelerate the sporangiophore eruption. The extent to which the undersides of the leaves had been infected was then determined visually.

With `Cc1ccc(-c2c(Cl)nc(C#N)n2S(=O)(=O)N(C)C)cc1` [cyazofamid] the “Efficacy in % of the untreated control” value (1 ppm in the spray liquor) was 73%, the “Efficacy in % of the untreated control” value (4 ppm in the spray liquor) was 79% and the “Efficacy in % of the untreated control” value (8 ppm in the spray liquor) was 84%. For the same compound, the “Efficacy in % of the untreated control” value (16 ppm in the spray liquor) was 89%.

— US20040029930A1, “Fungicidal mixtures based on amide compounds” (priority 2000, published 2004)
